The assay concerns the target kynurenine 3-monooxygenase (KMO; Recombinant human Kynurenine 3-hydroxylase) (Homo sapiens, UniProt O15229). Nature of the assay: SPR (Biacore T200, KMO immobilized on CM5 chip by amine coupling, […] binding model).

pKd: −log10 of the molar value.

Sequence of kynurenine 3-monooxygenase (KMO; Recombinant human Kynurenine 3-hydroxylase) (O15229 whole entry): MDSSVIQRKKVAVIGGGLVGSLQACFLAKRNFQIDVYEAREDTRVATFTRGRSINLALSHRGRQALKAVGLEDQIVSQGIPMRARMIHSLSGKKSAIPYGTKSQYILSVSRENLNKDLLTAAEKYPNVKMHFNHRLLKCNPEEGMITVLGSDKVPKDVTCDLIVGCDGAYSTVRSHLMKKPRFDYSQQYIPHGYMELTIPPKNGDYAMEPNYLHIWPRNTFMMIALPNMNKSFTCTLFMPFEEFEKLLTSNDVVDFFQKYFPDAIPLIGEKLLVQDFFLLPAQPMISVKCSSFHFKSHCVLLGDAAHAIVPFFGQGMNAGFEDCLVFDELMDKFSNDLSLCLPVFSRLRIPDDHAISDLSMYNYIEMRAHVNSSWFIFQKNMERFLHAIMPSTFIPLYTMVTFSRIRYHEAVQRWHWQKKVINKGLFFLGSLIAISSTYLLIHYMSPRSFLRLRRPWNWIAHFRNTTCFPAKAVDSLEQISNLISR

As to `CC(C)=CCC[C@](C)(O[C@@H]1O[C@H](CO[C@@H]2OC[C@@H](O)[C@H](O)[C@H]2O)[C@@H](O)[C@H](O)[C@H]1O)[C@H]1CC[C@]2(C)[C@@H]1[C@H](O)C[C@@H]1[C@@]3(C)CC[C@H](O[C@@H]4O[C@H](CO)[C@@H](O)[C@H](O)[C@H]4O[C@@H]4O[C@H](CO)[C@@H](O)[C@H](O)[C@H]4O)C(C)(C)[C@@H]3CC[C@]12C` [Ginsenoside Rb3], the pKd is 5.71.

The values are drawn from publication PMC10321280, “Inhibition of KMO Ameliorates Myocardial Ischemia Injury via Maintaining Mitochondrial Fusion and Fission Balance” (International Journal of Biological Sciences, 2023).
